Source: publication PMC9607644, “Glycoconjugation of Quinoline Derivatives Using the C-6 Position in Sugars as a Strategy for Improving the Selectivity and Cytotoxicity of Functionalized Compounds” (Molecules, 2022)

Tests used:
Format in all cases: cell-based, human
NHDF-Neo cells = experiment: Cell cycle analysis by flow cytometry, NHDF-Neo; conditions: IC50 dose, 24 h
Source text: After determining the type of cell death caused by the test compounds, the flow cytometry technique was used to study their influence on potential changes in the course of the cell cycle of the HCT-116, MCF-7, and NHDF-Neo lines. The cell cycle is the sequence of growth and division of cells, both normal and cancerous. This process begins from the resting phase (G0) through the active growth phases (G1, S, G2), leading to mitosis (M) in which the cell’s nucleus divides. […] After this time, cells were harvested and treated with a buffer to lysate the cells and isolate the cell nuclei. Propidium iodide was used to assess the amount of DNA in particular phases of the cell cycle. Histograms of DNA content in cells are presented in the Supplementary Materials (Figure S74).
The cell cycle and the type of cell death induced by the test compounds were measured by using flow cytometry according to the manufacturer’s protocol. The cells were seeded into 6-well plates at a density of 3 × 10^5 (HCT-116) or 4 × 10^5 (MCF-7, NHDF-Neo) per well (3 mL) and allowed to attach for 24 h under standard conditions with 5% CO2 at 37 °C. The following day, the medium was removed and cells were treated with solutions of test compounds in fresh medium at a dose equal to their IC50 values. Control cells were grown with fresh medium supplemented with 0.5% DMSO. After 24 h of incubation, the cells were collected by trypsinization. Then, samples were centrifuged (3 min, 2000 rpm, RT) and washed with PBS, after which the cells were centrifuged again (3 min, 2000 rpm, RT) and the supernatant was carefully removed. The resulting precipitate contained cells, which were used for flow cytometry experiments.
For cell cycle analysis, the cells were suspended in 300 μL of hypotonic buffer (consisting of: sodium citrate dihydrate 1 g/L, propidium iodide (PI) 1 mg/mL, RNAse A 10 mg/mL (EURx, Gdańsk, Poland), Triton X-100 1:9), mixed gently and incubated in the dark at room temperature for 20–30 min. […]

MCF-7 cells [1] = experiment: MTT viability with GLUT1 inhibitor EDG, MCF-7; conditions: 100 µM EDG, 72 h
Experimental: (§1) To investigate the possible interaction of the tested compounds with glucose receptors and thus to check whether they target the Warburg effect, tests of the influence of the presence of the GLUT inhibitor on the effectiveness of the glycoconjugates were carried out. For this, cells were treated each time with the test compounds in the presence of 100 µM of the GLUT1 inhibitor 4,6-O-ethylidene-α-D-glucose (EDG).

HCT-116 cells [2] = experiment: Annexin V-FITC/PI apoptosis flow cytometry, HCT-116; conditions: IC50 dose, 24 h
Source text: (§2) Apoptosis is a natural biological process involving programmed cell death and plays an important role in maintaining correct homeostasis between cell proliferation and cell death. This is in contrast to necrosis, which is accompanied by acute inflammation, preceded by cell degradation due to the loss of the integrity of the cell membrane. It is possible to distinguish viable cells from apoptotic and necrotic cell fractions using Annexin V-FITC and Propidium Iodide (PI). Annexin V-FITC labels phosphatidylserine residues that, after the start of apoptosis, are located on the outer surface of the cell membrane, enabling the identification of cells in the early stages of apoptosis. PI binds stoichiometrically to intracellular DNA during late apoptosis and necrosis when the cell membrane has been damaged. This combination allows for the differentiation of early apoptotic (A+/P−), late apoptotic (A+/P+), necrosis (A−/P+), and normal (A−/P−) cells that can be quantified by flow cytometry.
(§3) The cell cycle and the type of cell death induced by the test compounds were measured by using flow cytometry according to the manufacturer’s protocol. […] Control cells were grown with fresh medium supplemented with 0.5% DMSO. After 24 h of incubation, the cells were collected by trypsinization. Then, samples were centrifuged (3 min, 2000 rpm, RT) and washed with PBS, after which the cells were centrifuged again (3 min, 2000 rpm, RT) and the supernatant was carefully removed. The resulting precipitate contained cells, which were used for flow cytometry experiments.
(§4) The fraction of dead cells after treatment with the test compounds were detected using the FITC Annexin-V Apoptosis Detection Kit with PI (BioLegend, San Diego, CA, USA). […] 250 μL of the Annexin-V Binding Buffer was then added and the samples were incubated in the dark on ice for 15 min.

HCT-116 cells [3] = experiment: MTT viability with GLUT1 inhibitor EDG, HCT-116; conditions: 100 µM EDG, 72 h
Experimental: as §1

MCF-7 cells [4] = experiment: Annexin V-FITC/PI apoptosis flow cytometry, MCF-7; conditions: IC50 dose, 24 h
Source text: as §2, §3, §4

With `Oc1cccc2cccnc12` [Compound 8HQ, 8-hydroxyquinoline, reference compound] the “cell cycle phase distribution in words, NHDF-Neo” value (NHDF-Neo cells) was “subG1 phase increasing”, the “effect of EDG inhibitor in words, MCF-7” value (MCF-7 cells [1]) was “did not have any effect on the cellular uptake” and the “apoptosis induction in words, HCT-116” value (HCT-116 cells [2]) was “results were similar to the control fraction”. For the same compound, the “effect of EDG inhibitor in words, HCT-116” value (HCT-116 cells [3]) was “did not have any effect on the cellular uptake” and the “apoptosis induction in words, MCF-7” value (MCF-7 cells [4]) was “results were similar to the control fraction”.
